Test results published in patent US20120202690A1, “HERBICIDAL COMPOUNDS” (SYNGENTA LIMITED, priority 2009, published 2012).

Key:
Assay type in all cases: in vivo
[1] = test system: Amaranthus retroflexus (AMARE); assay: Pre-emergence biological efficacy, glasshouse, 1000 g/ha, evaluated after 13 days (100=total damage to plant; 0=no damage to plant); settings: Amaranthus retroflexus, 312 h, rate 1,000 g/ha, read-out: Percentage damage caused to weed species, pre-emergence, AMARE
Procedure, shortened: (§1)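 Pot-sown in standard soil; glasshouse 24/16° C. (day/night), 14 h light, 65% humidity; watered twice daily.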

Setaria faberi (SETFA) [2] = assay: as above; settings: Setaria faberi, 312 h, rate 1,000 g/ha, read-out: Percentage damage caused to weed species, pre-emergence, SETFA
Procedure, shortened: as §1

[3] = test system: Alopecurus myosuroides (ALOMY); assay: as above; settings: Alopecurus myosuroides, 312 h, rate 1,000 g/ha, read-out: Percentage damage caused to weed species, pre-emergence, ALOMY
Procedure, shortened: as §1

[4] = test system: Ipomoea hederaceae (IPOHE); assay: as above; settings: Ipomoea, 312 h, rate 1,000 g/ha, read-out: Percentage damage caused to weed species, pre-emergence, IPOHE
Procedure, shortened: as §1

[5] = test system: Echinochloa crus-galli (ECHCG); assay: as above; settings: Echinochloa crus-galli, 312 h, rate 1,000 g/ha, read-out: Percentage damage caused to weed species, pre-emergence, ECHCG
Procedure, shortened: as §1

Solanum nigrum (SOLNI) [6] = assay: as above; settings: Solanum nigrum, 312 h, rate 1,000 g/ha, read-out: Percentage damage caused to weed species, pre-emergence, SOLNI
Procedure, shortened: as §1

[7] = test system: Amaranthus retroflexus (AMARE); assay: Post-emergence biological efficacy, glasshouse, 500 or 1000 g/ha, evaluated after 13 days (100=total damage to plant; 0=no damage to plant); settings: Amaranthus retroflexus, 312 h, rate 1,000 g/ha, read-out: Percentage damage caused to weed species, post-emergence, AMARE
Procedure, shortened: (§2)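 Weed seeds were sown in standard soil in pots and the plants treated post-emergence. Afterwards they were grown on in a controlled glasshouse at 24/16° C. day/night with 14 hours light and 65% humidity, and watered twice daily.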

Setaria faberi (SETFA) [8] = assay: as above; settings: Setaria faberi, 312 h, rate 1,000 g/ha, read-out: Percentage damage caused to weed species, post-emergence, SETFA
Procedure, shortened: as §2

[9] = test system: Alopecurus myosuroides (ALOMY); assay: as above; settings: Alopecurus myosuroides, 312 h, rate 1,000 g/ha, read-out: Percentage damage caused to weed species, post-emergence, ALOMY
Procedure, shortened: as §2

[10] = test system: Ipomoea hederaceae (IPOHE); assay: as above; settings: Ipomoea, 312 h, rate 1,000 g/ha, read-out: Percentage damage caused to weed species, post-emergence, IPOHE
Procedure, shortened: as §2

[11] = test system: Echinochloa crusgaffi (ECHCG); assay: as above; settings: Echinochloa, 312 h, rate 1,000 g/ha, read-out: Percentage damage caused to weed species, post-emergence, ECHCG
Procedure, shortened: as §2

Solanum nigrum (SOLNI) [12] = assay: as above; settings: Solanum nigrum, 312 h, rate 1,000 g/ha, read-out: Percentage damage caused to weed species, post-emergence, SOLNI
Procedure, shortened: as §2

SMILES | pest or weed control at 1000 g/ha [1] | pest or weed control at 1000 g/ha (Setaria faberi (SETFA) [2]) | pest or weed control at 1000 g/ha [3] | pest or weed control at 1000 g/ha [4] | pest or weed control at 1000 g/ha [5] | pest or weed control at 1000 g/ha (Solanum nigrum (SOLNI) [6]) | pest or weed control at 1000 g/ha [7] | pest or weed control at 1000 g/ha (Setaria faberi (SETFA) [8]) | pest or weed control at 1000 g/ha [9] | pest or weed control at 1000 g/ha [10] | pest or weed control at 1000 g/ha [11] | pest or weed control at 1000 g/ha (Solanum nigrum (SOLNI) [12])
COC(=O)c1nc(-c2ccc(Cl)c(OC)c2F)cc2[nH]ccc12 [Compound 22-62, 6-(4-Chloro-2-fluoro-3-methoxyphenyl)-4-methoxycarbonyl-1H-pyrrolo[3,2-c]pyridine] | 20% | 0% | 0% | 50% | 0% | 20% | 80% | 20% | 0% | 60% | 50% | 70%
CCCCOCCOC(=O)c1nc(-c2ccc(Cl)c(OC)c2F)cc2[nH]cc(C)c12 [Compound 22-83] | 0% | 10% | 20% | 80% | 20% | 80% | 90% | 40% | 20% | 60% | 20% | 90%
COc1c(Cl)ccc(-c2nc(C(=O)O)c3c(n2)N(C)CCN3C)c1F [Compound 92-163, 4-Carboxy-2-(4-chloro-2-fluoro-3-methoxyphenyl)-5,8-dimethyl-5,6,7,8-tetrahydropteridine] | 0% | 0% | 0% | 0% | 0% | 0% | 0% | 10% | 10% | 10% | 10% | 10%
COC(=O)c1nc(-c2ccc(Cl)c(OC)c2F)cc2c1c(C)cn2C(=O)C(C)(C)C [Compound 37-64, 1-t-Butylcarbonyl-6-(4-chloro-2-fluoro-3-methoxyphenyl)-4-methoxycarbonyl-3-methyl-1H-pyrrolo[3,2-c]pyridine] | 0% | 0% | 0% | 0% | 0% | 0% | 0% | 0% | 0% | 40% | 0% | 50%
COC(=O)c1nc(-c2ccc(Cl)c(OC)c2F)nc2c1c(C)cn2Cc1ccc(C(F)(F)F)o1 [Compound 12-64] | 0% | 0% | 0% | 0% | 0% | 0% | 20% | 30% | 10% | 50% | 10% | 30%
COC(=O)c1nc(-c2ccc(Cl)c(OC)c2F)nc2[nH]c(C)c(C)c12 [Compound 1-68, 2-(4-Chloro-2-fluoro-3-methoxyphenyl)-5,6-dimethyl-4-methoxycarbonyl-7H-pyrrolo[2,3-d]pyrimidine] | 0% | 0% | 0% | 0% | 0% | 0% | 10% | 0% | 0% | 60% | 10% | 30%
COC(=O)c1nc(-c2ccc(Cl)c(OC)c2F)nc2c1c(C)cn2C(=O)C(C)(C)C [Compound 16-64, 7-t-Butylcarbonyl-2-(4-chloro-2-fluoro-3-methoxyphenyl)-4-methoxycarbonyl-5-methyl-7H-pyrrolo[2,3-d]pyrimidine] | 0% | 0% | 0% | 0% | 0% | 0% | 10% | 0% | 0% | 70% | 0% | 60%
CCOC(=O)c1nc(-c2ccc(Cl)c(OC)c2F)cc2[nH]cc(C)c12 [Compound 22-75, 6-(4-chloro-2-fluoro-3-methoxyphenyl)-4-ethoxycarbonyl-3-methyl-1H-pyrrolo[3,2-c]pyridine] | 70% | 0% | 10% | 90% | 10% | 80% | 80% | 50% | 10% | 60% | 20% | 90%
CCOC(=O)c1nc(-c2ccc(Cl)c(OC)c2F)nc2[nH]cc(C)c12 [Compound 1-75, 2-(4-Chloro-2-fluoro-3-methoxyphenyl)-4-ethoxycarbonyl-5-methyl-7H-pyrrolo[2,3-d]pyrimidine] | 0% | 0% | 0% | 0% | 0% | 0% | 40% | 0% | 0% | 70% | 0% | 70%
COC(=O)c1nc(-c2ccc(Cl)c(OC)c2F)nc2c1NC(C)C(C)N2 (stereo not drawn) [Compound 91-184, 2-(4-Chloro-2-fluoro-3-methoxyphenyl)-6,7-dimethyl-4-methoxy-carbonyl-5,6,7,8-tetrahydropteridine] | 0% | 0% | 0% | 0% | 0% | 0% | 20% | 0% | 0% | 70% | 30% | 50%
COC(=O)c1nc(-c2ccc(Cl)c(OC)c2F)nc2c1cc(C)n2Cc1ccccc1 [Compound 6-66, 2-(4-Chloro-2-fluoro-3-methoxyphenyl)-4-methoxycarbonyl-6-methyl-7-phenylmethyl-7H-pyrrolo[2,3-d]pyrimidine] | 10% | 0% | 0% | 0% | 0% | 20% | 40% | 10% | 0% | 40% | 0% | 80%
COc1c(Cl)ccc(-c2nc(C(=O)O)c3c(C)cn(C(C)c4ccccc4)c3n2)c1F (stereo not drawn) [Compound 7-63, 4-Carboxy-2-(4-chloro-2-fluoro-3-methoxyphenyl)-5-methyl-7-(1-phenyl-ethyl)-7H-pyrrolo[2,3-d]pyrimidine] | 0% | 0% | 0% | 0% | 0% | 0% | 20% | 10% | 0% | 10% | 0% | 60%
